This passage reports TGI and GI50 results from PubChem BioAssay (NCI).

Among the test systems are M14 melanoma; OVCAR-3 ovarian; HCC-2998 colon; HT29 colon; K-562 leukemia; OVCAR-5 ovarian; TK-10 renal; SNB-75 CNS; A549 NSCLC; NCI-H226 lung.
Assay in all cases: NCI anticancer screen, dose series, 48 h

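Exposure lasted 48 hours, with cells grown in 96-well plates and compounds tested at five concentrations. The concentration for 50% growth inhibition is given as GI50. TGI denotes the concentration required for complete inhibition of growth.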 Where only a bound is given, the exact number is not on record here.

With `O=C1/C(=C/c2ccc(Cl)cc2)CCC1CCN1CCOCC1` (stereo not drawn), the TGI in the assay on M14 melanoma, in the assay on OVCAR-3 ovarian, with HCC-2998 colon, in the assay with HT29 colon, in the assay on K-562 leukemia and with OVCAR-5 ovarian was above 100 µM each time. Moreover, the TGI in the assay with TK-10 renal, in the assay with SNB-75 CNS, in the assay on A549 NSCLC and in the assay with NCI-H226 lung was above 100 µM throughout.

Consider `COc1cccc2c1C(=O)c1c(O)c3c(c(O)c1C2=O)C[C@](O)(C(=O)CO)C[C@H]3O[C@@H]1C[C@@H](NC(=O)CCCCCN(C)C2(c3ccc(F)cc3)CC3CCC2C3)[C@H](O)[C@@H](C)O1` (stereo partly drawn), for which the GI50 in the assay on M14 melanoma was 3.48 µM; in the assay on OVCAR-3 ovarian it was 1410 nM; with HCC-2998 colon it was 1030 nM; with HT29 colon, 676 nM; in the assay on K-562 leukemia, 1110 nM; in the assay with OVCAR-5 ovarian, 0.988 µM. For the same molecule, the GI50 in the assay on TK-10 renal is 611 nM; in the assay with SNB-75 CNS it was 3.28 µM; with NCI-H226 lung, 6.68 µM. For the same molecule, the TGI in the assay with M14 melanoma is 14.3 µM; with OVCAR-3 ovarian it was 4.27 µM; in the assay with HCC-2998 colon, 3.37 µM; in the assay on HT29 colon it was 1.5 µM; with K-562 leukemia, 2.47 µM; with OVCAR-5 ovarian it was 2.19 µM. Also, the results for the TGI in the assay on TK-10 renal, with SNB-75 CNS and in the assay on NCI-H226 lung were 1.28 µM, 11.2 µM and 16.9 µM, respectively.

In the case of `CN(C)C(n1cc2c(c1)-c1ccc(Cl)cc1C(c1ccccc1F)=NC2)n1cc2c(c1)-c1ccc(Cl)cc1C(c1ccccc1F)=NC2`, the TGI in the assay on M14 melanoma, in the assay on OVCAR-3 ovarian, in the assay with HCC-2998 colon, with HT29 colon, in the assay on K-562 leukemia and in the assay on OVCAR-5 ovarian was above 100 µM in each case. Further, the figures for the TGI in the assay with SNB-75 CNS, with A549 NSCLC and in the assay with NCI-H226 lung were 77.2 µM, above 100 µM and above 100 µM, respectively.

For the molecule `COc1ccc(Nc2nnc(-c3cc(O)ccc3O)s2)cc1`, the GI50 with M14 melanoma was above 50 µM; in the assay with OVCAR-3 ovarian, above 50000 nM; in the assay on HT29 colon, above 50000 nM; in the assay with K-562 leukemia, 17600 nM; with OVCAR-5 ovarian, above 50 µM; in the assay on TK-10 renal it was 48400 nM. Moreover, the GI50 in the assay with SNB-75 CNS was 9.45 µM; in the assay with A549 NSCLC it was above 50 µM; in the assay with NCI-H226 lung, 11 µM. Further, the TGI in the assay on M14 melanoma, with OVCAR-3 ovarian, with HT29 colon, in the assay on K-562 leukemia, with OVCAR-5 ovarian and in the assay with TK-10 renal was above 50 µM throughout. Further, the TGI with SNB-75 CNS was above 50 µM; in the assay with A549 NSCLC, above 50 µM; with NCI-H226 lung, 39.9 µM.

On to `O=C(/C=C/c1cccc2ccccc12)c1ccccc1Cl`, for which the TGI in the assay on M14 melanoma was 29.3 µM; in the assay with OVCAR-3 ovarian, 25.6 µM; with HCC-2998 colon, 28.4 µM; in the assay with HT29 colon, 26.4 µM; in the assay on K-562 leukemia it was above 100 µM; in the assay with TK-10 renal, 28.1 µM. For the same molecule, the TGI is 30.5 µM in the assay with SNB-75 CNS, 55.7 µM with A549 NSCLC and above 100 µM in the assay with NCI-H226 lung.

`O=C(CCc1n[nH]c(=S)o1)Nc1ccccc1C(F)(F)F`: the TGI in the assay with M14 melanoma, with OVCAR-3 ovarian, with HCC-2998 colon, in the assay on HT29 colon, in the assay on K-562 leukemia and with OVCAR-5 ovarian was above 100 µM in each case. The TGI with TK-10 renal, with SNB-75 CNS and with NCI-H226 lung was above 100 µM in each case.

Turning to `CCC(C)COC(=O)c1ccc(N=Cc2ccc(C=Nc3ccc(C(=O)OCC(C)CC)cc3)cc2)cc1` (stereo not drawn), the TGI with M14 melanoma, with OVCAR-3 ovarian, in the assay with HCC-2998 colon, in the assay with HT29 colon, with K-562 leukemia and in the assay with OVCAR-5 ovarian was above 100 µM throughout. The TGI in the assay on SNB-75 CNS, in the assay on A549 NSCLC and with NCI-H226 lung was above 100 µM each time.

For `[Cl][Hg][c]1cc[c]([Hg][Cl])o1`, the GI50 is 2.53 µM with M14 melanoma; 17000 nM in the assay on HCC-2998 colon; 2990 nM in the assay with HT29 colon; 1240 nM in the assay on K-562 leukemia; 7.17 µM in the assay on OVCAR-5 ovarian; 1700 nM with TK-10 renal. Further, the GI50 in the assay on SNB-75 CNS is 3.78 µM; in the assay with A549 NSCLC, 21.9 µM; with NCI-H226 lung, 21.8 µM. In addition, the TGI worked out at 12 µM in the assay on M14 melanoma; 42.9 µM with HCC-2998 colon; 9.88 µM in the assay with HT29 colon; 11.8 µM in the assay on K-562 leukemia; 23.9 µM in the assay on OVCAR-5 ovarian; 3.1 µM in the assay with TK-10 renal. Also, the figures for the TGI in the assay on SNB-75 CNS, in the assay on A549 NSCLC and with NCI-H226 lung were 19.6 µM, 53.5 µM and 51.8 µM, respectively.

Turning to `Cc1nn(-c2ccc(Cl)cc2)c2nc3c(nc12)C(=O)c1ccccc1-3`, the GI50 in the assay on M14 melanoma was above 100 µM; in the assay with OVCAR-3 ovarian it was above 100000 nM; in the assay on HCC-2998 colon it was above 100000 nM; in the assay with HT29 colon, above 100000 nM; with K-562 leukemia, above 100000 nM; in the assay on OVCAR-5 ovarian it was above 100 µM. Besides, the results for the GI50 with SNB-75 CNS, in the assay with A549 NSCLC and in the assay with NCI-H226 lung were 10.9 µM, above 100 µM and 25.6 µM, respectively. The TGI with M14 melanoma, in the assay on OVCAR-3 ovarian, in the assay on HCC-2998 colon, in the assay on HT29 colon, with K-562 leukemia and in the assay on OVCAR-5 ovarian was above 100 µM throughout. Moreover, the TGI in the assay on SNB-75 CNS is 46.3 µM; in the assay with A549 NSCLC, above 100 µM; in the assay on NCI-H226 lung it was above 100 µM.

With `Oc1cccnc1[Se]`, the TGI in the assay with M14 melanoma was 67.9 µM; in the assay on OVCAR-3 ovarian, above 100 µM; in the assay with HT29 colon, above 100 µM; in the assay on K-562 leukemia, above 100 µM; with OVCAR-5 ovarian, above 100 µM; in the assay on TK-10 renal, above 100 µM. Moreover, the TGI in the assay on SNB-75 CNS, in the assay with A549 NSCLC and in the assay on NCI-H226 lung was above 100 µM in each case.

On to `COc1ccc2[nH]cc(C3(c4c[nH]c5ccc(OC)cc45)C(=O)Nc4ccc(F)cc43)c2c1`, for which the GI50 in the assay on M14 melanoma is 2.41 µM; with OVCAR-3 ovarian it was 2150 nM; with HCC-2998 colon it was 2930 nM; with HT29 colon, 2440 nM; in the assay on K-562 leukemia, 2240 nM; in the assay with OVCAR-5 ovarian, 2.61 µM. Besides, the GI50 is 1.38 µM in the assay with SNB-75 CNS and 2.58 µM in the assay with NCI-H226 lung. The TGI in the assay with M14 melanoma was determined as 6.77 µM; in the assay with OVCAR-3 ovarian, 4.42 µM; with HCC-2998 colon, 8.97 µM; in the assay on HT29 colon, 6.14 µM; in the assay on K-562 leukemia, 5.78 µM; in the assay on OVCAR-5 ovarian it was 8.93 µM. Further, the TGI stood at 8.23 µM with SNB-75 CNS and 12 µM in the assay on NCI-H226 lung.
